What all share (type): cell-based
For assay [1], the system named is E. coli MC4100 FQR and GEPR mutants. Put plainly: Growth kinetics on resistant mutants. The note with it: EC80 concentrations, Fig. S3. As for the experimental part:
ONC of E. coli MC4100 were diluted to OD600 = 0.07 in 20 mL LB supplemented with an initial concentration of 0.4 μM lomefloxacin, 8 μM gepotidacin, or no antibiotic. After overnight incubation, part of the culture was plated onto LB agar plates with the same concentration of lomefloxacin or gepotidacin to isolate resistant colonies. OD600 of the remaining culture was determined and diluted to OD600 = 0.1 into fresh medium with a 1.5–2-fold increased concentration of lomefloxacin or gepotidacin. […] Resistant colonies were sent for Whole Genome Sequencing using short Illumina reads at MicrobesNG (Birmingham, UK). Sequencing data was analyzed using CLC Genomics Workbench (Qiagen).
Figure S3: Growth kinetics of lomefloxacin, gepotidacin, A2 and B1 on WT, FQR and GEPR mutants. E. coli
TOP10F’ cells were treated with EC80 concentrations of compounds and growth (OD600) recorded over time.
Graphs indicate % growth compared to DMSO control. Error bars indicate standard deviations of triplicates. […]

Assay [2] concerns Rcs cell envelope stress response in Escherichia coli. Description: Rcs stress reporter assay, HTS format, dose-response curves. The note with it: for Emax: read-out: Max. effect (%); for EC50: read-out: pEC50 (converted). As for the experimental part:
We adapted the reporter assay based on the Rcs stress system for HTS in a screening program at the ELF as the first bacterial phenotypic screen used in this setting. , The assay was performed in a 1536-well format using 25 μM PMBN as a reference (set at 100% effect).
The ELF screened their extensive and diverse library consisting of >500,000 small molecules at a concentration of 10 μM. The assay window (S/B) and Z’ values remained stable (2.0–15.2 and 0.50–0.90, respectively) throughout the screening campaign. The detailed standard screening procedure of the ELF is outlined elsewhere. An overview of the selection process of the screening campaign performed here is outlined in Figure . Initially, 340 compounds with an effect ≥20% of the reference compound PMBN were considered biologically active. Usually, up to 1% of the input library is selected for confirmatory, dose–response, orthogonal and deselection assays. Because the number of biological actives identified in this assay was well below the 1% limit, no orthogonal assays were performed. Instead, all compounds were reordered and tested as dilution series in the Rcs assay to generate dose–response curves (DRCs). Each compound’s pEC50 (−log of EC50, defined as the concentration (mol/L) at which 50% effect is achieved) was determined, and compounds with a pEC50 ≥ 4.7 were selected for further analysis. Next, the compounds were subjected to a mammalian cell-based cytotoxicity assay to exclude toxic compounds that may have a generic effect on membrane integrity. Compounds that reduced mammalian cell viability by 50% were considered cytotoxic. The qualified hit list (QHL) was then generated following triaging based on LC-MS analysis and pEC50 values.
Overnight cultures (ONCs) were prepared by inoculating 5 mL medium from glycerol stocks and incubating the culture for 16–18 h. ONCs were then diluted to an OD600 of 0.05 and grown until an OD600 of 0.3–0.4 was reached.
Assay robustness was confirmed by testing its sensitivity to assay-interfering agents, including colored, aggregating and fluorescent compounds. […] For HTS, bacteria were diluted 50x in prewarmed medium. Fifteen nL of assay compounds (10 μM), DMSO (0.25%), or the reference compound polymyxin B nonapeptide (PMBN) at 25 μM were added to 1536 well plates. Next, 6 μL culture aliquots were added to assay plates containing compounds. Plates were briefly centrifuged for 1 min at 150 x g. Plates were incubated at 37 °C with high humidity and fluorescence (Ex./Em. λ: 485/528 nm) was measured at T = 0 and T = 150 min using a ClarioStar plate reader (BMG Labtech). For data analysis, T = 0 values were subtracted from T = 150 values to calculate Z-score and % effect compared to the reference compound.
Dose–response curves of the 340 initial active compounds were determined following the preparation of serial dilutions (20 nM–20 μM; 7 points, √10). The % effect compared to the reference compound PMBN was calculated and plotted for each compound dilution. The resulting plots were used to calculate pEC50 (-log(EC50), with EC50 being determined as the concentration at which a 50% effect is observed).
On the technique in general: In a reporter assay the amount or activity of a reporter protein is the signal.

Assay [3] has as its system SOS stress response in E. coli MC4100. Description: SOS stress reporter assay (PlexA-mNG). The note with it: EC80 compound concentrations (Fig. 5A); Fig. S4. The source says:
To examine the potential link between DNA gyrase inhibition, SOS stress, and CE stress, we designed a fluorescent SOS reporter plasmid, similar to the reporter plasmids used to study CE stresses.
5 (A) SOS stress induced by different compounds at EC80 concentrations in E. coli MC4100. (B) Rcs stress of different compounds at EC80 concentrations in E. coli MC4100. (C) Rcs stress of the nonquinolone gyrase inhibitor LEI-800 in TOP10F’. (D) Rcs stress induced by mitomycin C in E. coli TOP10F’ and E. coli MC4100. Graphs show fold change in fluorescence adjusted for bacterial growth (OD600). Error bars indicate standard deviation of triplicates. Data are representative of two independent experiments with similar results.

Assay [4] has as its system Rcs stress response in E. coli MC4100 (WT, FQR, GEPR). Put plainly: Rcs stress reporter assay in MC4100 wildtype and resistant mutants. The settings on record: EC80 concentrations. The source says: Serial passaging of E. coli MC4100 in the presence of increasing concentrations of lomefloxacin or gepotidacin yielded resistant variants of E. coli MC4100. We used MC4100 to raise resistance, because unlike the screening strain TOP10F’, this strain has a functional SOS stress response, which has been implicated in developing resistance against quinolones. Compounds also elicited a robust Rcs stress response in E. coli MC4100, allowing for this strain to be used for stress assays.
4 Rcs stress induced by EC80 concentrations of (A) lomefloxacin, (B) gepotidacin, (C) A2, and (D) B1 in wildtype (WT), fluoroquinolone resistant (FQR) or gepotidacin resistant (GEPR) bacteria. Graphs show the fold change in fluorescence adjusted for bacterial growth as determined by OD600. Error bars indicate the standard deviation of triplicate samples. Data are representative of three independent experiments with similar results. […]
For lower throughput analysis under laboratory conditions, cultures grown to OD600 of 0.3–0.4 were diluted to a final concnetration of 0.05 OD600 units/mL in black, clear-bottom 96-well plates (Greiner Bio-One B.V.). Plates were incubated in a Biotek HTX or H1 plate reader (Agilent Technologies) at 37 °C with continuous shaking. Kinetic studies were performed by measuring OD600 and fluorescence (Ex./Em. Λ: 485/528 nm) every 20 min for 10h. For end point measurements, fluorescence was measured at T = 0 and once more at T = 150 min.

As to `CC(C)(C)n1cc(C(=O)O)c(=O)c2cc(F)c(N3CC4CC3CN4)nc21` (stereo not shown) [A2], in assay [1], the “growth inhibition / susceptibility of FQR (gyrA S83L) mutant” value is “showed cross-resistance” and the “growth inhibition / susceptibility of GEPR mutant” value was “less susceptible”. Further, in assay [2], the Emax amounted to 26.6% and the EC50 is 107 nM. The “SOS stress induction in MC4100” value in assay [3] is given as “induced SOS stress at similar levels as the FQ lomefloxacin”. In assay [4], the “Rcs stress in FQR (gyrA S83L) mutant” value is “lacked Rcs stress”.

`O=C1COc2ccc(CNC3CCN(CC4Cc5c(F)cc(F)c6ccc(=O)n4c56)CC3)nc2N1` (stereo not shown) [B1]: in assay [1], the “growth inhibition / susceptibility of FQR (gyrA S83L) mutant” value is reported as “remained susceptible to growth inhibition” and the “growth inhibition / susceptibility of GEPR mutant” value is reported as “exhibited cross-resistance”. Further, in assay [2], the Emax turned out to be 53.3% and the EC50 was 282 nM. The “SOS stress induction in MC4100” value in assay [3] is reported as “induced SOS stress at similar levels as the FQ lomefloxacin”. Besides, in assay [4], the “Rcs stress in FQR (gyrA S83L) mutant” value is “still exhibited Rcs stress” and the “Rcs stress in GEPR mutant” value was “did not show Rcs stress”.

(Values after paper PMC12442099 (ACS Infectious Diseases, 2025).)
